The results in this text go back to ChEMBL document CHEMBL3232817, “Structural elucidation and synthesis of vialinin C, a new inhibitor of TNF-α production” (Bioorg Med Chem, 2014).

This test deals with RBL-2H3. Kind of test: Inhibition of TNF-alpha production in rat RBL2H3 cells. The test is classed as functional, cell-based.
Broadly, the IC50 is the midpoint of a concentration-inhibition curve. Compound `O=C(Oc1c(OC(=O)c2ccc(O)cc2)c(-c2ccc(O)cc2)c(O)c(O)c1-c1ccc(O)cc1)c1ccc(O)cc1` returned an IC50 of 3.5 nM.
`O=C(Cc1ccccc1)Oc1c(OC(=O)Cc2ccccc2)c(-c2ccc(O)cc2)c(O)c(O)c1-c1ccc(O)cc1` [VIALININ A] gave an IC50 of 0.25 nM.
In turn, `O=C(Oc1c(-c2ccc(O)cc2)c(O)c2oc3cc(O)c(O)cc3c2c1OC(=O)c1ccc(O)cc1)c1ccc(O)cc1` registered a half-maximal inhibitory concentration (IC50) of 890 nM.
Next, `O=C(Cc1ccccc1)Oc1c(-c2ccc(O)cc2)c(O)c2oc3cc(O)c(O)cc3c2c1OC(=O)Cc1ccccc1` [VIALININ B]: 0.05 nM.
